Literature values, collected in patent US7001916B1, “Epothilon derivatives, method for the production and the use thereof as pharmaceuticals” (priority 1999, dated 2006).

System: P-glycoprotein-forming multiresistant tumor lines
Details: in comparison to taxol

Compound | activity against P-glycoprotein-forming multiresistant tumor lines
C/C(=C\c1csc(C)n1)[C@@H]1C[C@@H]2O[C@@H]2CCC[C@H](C)[C@H](O)[C@@H](C)C(=O)C(C)(C)[C@@H](O)CC(=O)O1 [Epothilone A, epothilone A] | significantly higher activity
C/C(=C\c1csc(C)n1)[C@@H]1C[C@@H]2O[C@]2(C)CCC[C@H](C)[C@H](O)[C@@H](C)C(=O)C(C)(C)[C@@H](O)CC(=O)O1 [Epothilone B, epothilone B] | significantly higher activity
